The numbers were not newly measured in US6514536B2, “Drug preparations for treating sexual dysfunction” (L.A.M. Pharmaceutical Corporation, priority 1998, dated 2003), which cites them from elsewhere.

Structures are written as SMILES.

The conditions of series [1]: most abundant metabolite in plasma.
For series [2], the system named is isolated corpus cavernosum and corpus spongiosum preparations. To be noted: in vitro.
In series [3] the test system is isolated cavernosal artery segments. To be noted: segments pre-contracted with noreginephrine or prostaglandin E2α.
Series [4] deals with blood pressure. Particulars: intravenous doses of 1 to 10 micrograms per kilogram of body weight.
The subject of series [5] is erection. Particulars: men who failed prior intracavernous therapy with papaverine and phentolamine.
For series [6], the system named is penile blood flow. Particulars: duplex sonography.

As for `CCCCCC(=O)CC[C@H]1[C@H](O)CC(=O)[C@@H]1CCCCCCC(=O)O` [DKH-PGE1, 13,14-dihydro,15-keto PGE1], in series [1], the biological activity entry is “biologically inactive”.

Regarding `CCCCC[C@H](O)/C=C/[C@H]1[C@H](O)CC(=O)[C@@H]1CCCCCCC(=O)O` [PGE1, prostaglandin E1], the smooth muscle relaxation entry in series [2] is “dose-dependent smooth muscle relaxation”. In series [3], the vasodilation result was “vasodilation has been demonstrated”. For the same compound, the “effect on blood pressure” value in series [4] is reported as “lower blood pressure”. In addition, in series [5], the “share of men achieving adequate erections” value is “two-thirds”. Besides, the “increase in penile blood flow compared with papaverine” value in series [6] is on record as “at least as effective as papaverine”.
